{"source": "patent US6921768B2", "about": "“Cytostatic cerium compounds” (Faustus Forschungs Cie. Translational Cancer Research GmbH, priority 2001, dated 2005)", "key": {"[1]": {"system": "over 50 human tumour cell lines", "details": "48-h sulphurhodamine B-assay", "description": "First in vitro tests were carried out at the National Cancer Institute (Bethesda, Md., USA)."}, "[2]": {"system": "13 human tumour xenografts and 10 human tumour cell lines", "details": "propidium iodide assay"}, "[3]": {"details": "mean over more than 50 human tumour cell lines"}, "[4]": {"details": "mean over 13 human tumour xenografts and 10 human tumour cell lines"}}, "note": "pIC50: −log10 of the molar value."}
{"molecule": "O.[Cl-].[Cl-].[Cl][Ce+2].c1cnc2c(c1)ccc1cccnc12.c1cnc2c(c1)ccc1cccnc12", "note": "[KP 776, trans-[aquachlorobis(1,10-phenantrolin)cerium(III)]-dichloride]", "values": [{"measurement": "Mean Gl50", "setting": "[1]; [3]", "result": 0.61, "unit": "µg/mL"}, {"measurement": "Mean LC50", "setting": "[1]; [3]", "result": 39.4, "unit": "µg/mL"}, {"measurement": "activity on single ovarian, kidney cell and parvicellular and non-parvicellular bronchial carcinoma cell lines", "setting": "[1]; result in words", "result": "Above average activities"}, {"measurement": "selectivity among tumour cell line types", "setting": "[1]; result in words", "result": "a certain selectivity for malignant melanoma was evident"}, {"measurement": "pIC50", "setting": "[1]; read-out: Mean Gl50, mean over more than 50 human tumour cell lines", "result": 6.01}, {"measurement": "CC50", "setting": "[1]; read-out: Mean LC50, mean over more than 50 human tumour cell lines", "result": 63.1, "unit": "µM"}, {"measurement": "Mean IC50", "setting": "[2]; [4]", "result": 1.20, "unit": "µg/mL"}, {"measurement": "Mean IC90", "setting": "[2]; [4]", "result": 7.27, "unit": "µg/mL"}, {"measurement": "tumour type with strongest effectiveness", "setting": "[2]; result in words", "result": "the strongest effectiveness was found on a melanoma (xenograft)"}, {"measurement": "pIC50", "setting": "[2]; read-out: Mean IC50, mean over 13 human tumour xenografts and 10 human tumour cell lines", "result": 5.72}, {"measurement": "IC90", "setting": "[2]; read-out: Mean IC90, mean over 13 human tumour xenografts and 10 human tumour cell lines", "result": 11.6, "unit": "µM"}]}
